Reference: publication PMC7414031, “Correlation between hemolytic activity, cytotoxicity and systemic in vivo toxicity of synthetic antimicrobial peptides” (Scientific Reports, 2020)
Converted amounts (≈) assume the structure as drawn. Square brackets hold non-standard residues; d marks the D form. Peptide text beside a SMILES is read from it. 2Nal = N[C@@H](Cc1ccc2ccccc2c1)C(=O)O; Nlys = NCCCCNCC(=O)O

Assays:
in vitro [1] = format: cell-based, dog; conditions: dog
Method: (§1) The haemolytic activity of the 24 structurally related peptides (Table 1) was evaluated in erythrocytes from four different species (human, canine, bovine and rat) employing standard methodology. The subsequent release of haemoglobin was used to assess haemolytic activity as function of peptide and peptidomimetic concentration, with concentrations ranging from 0.15 to 150 µM (Presented in whole in Supplementary information Table S1–S4).
(§2) Human and rat (Sprague–Dawley) blood samples were purchased by Bioreclamation IVT (Westbury, NY, USA), collected in tubes containing heparin as anticoagulant and stored at 4 °C before use. Dog and bovine whole blood was collected from in-house animals at Zoetis Animal Health, Kalamazoo, Michigan and stored at 4 °C in tubes containing heparin as anticoagulant. 10 mL of each whole blood sample were centrifuged at 1,500 × g for 5 min and the resulting plasma fraction was removed from the samples. The pellets were washed with an equal volume (10 mL) of saline, mixing by inversion. The centrifuging and washing steps were repeated 5 times. After the last washing step, a volume of PBS was added, and the resulting samples were diluted 1:10 with PBS to yield an RBC concentration of ~ 5 × 10^8 RBC/mL. The assay was performed in a 384-well polypropylene microplate (Greiner 784201, Greiner Bio-One International, GMBH) through a Bravo Liquid Handling Platform 384 system (Agilent Technologies, Santa Clara, CA, USA) according to the previously published procedures. The compounds were tested in serial 1:1 dilutions in PBS, with final concentrations ranging from 150 to 1.2 µM. Melittin was used as reference lytic peptide. 1% TritonX100 and PBS were used as positive and negative (diluent) controls, respectively. The final concentrations were obtained by adding to the wells 7 µL of each solution, melittin or PBS, followed by 63 µL of RBCs to each well. The plate was sealed, shaken on a plate shaker for 20 s, incubated for one hour at 37 °C. Finally, it was centrifuged at 1,500 × g for 5 min at room temperature. 60 µL of supernatants were removed from all plate wells via a Bravo 384 robot and transferred to a flat-bottomed 384-well plate (Greiner UV-Star #7810801, Greiner Bio-One International, GMBH). The plate was centrifuged at 1,000 g for 1 min to remove air bubbles and optical density was measured at 405 nm using a plate reader. Percentage of haemolysis was calculated with the following equation: %haemolysis=(absorbance of test sample)-absorbance of diluent/absorbance of positive control-absorbance of diluent×100.

canine erythrocytes = test: in vitro; format: cell-based, dog; conditions: for IC10 haemolysis: canine erythrocytes; for IC50: red cells of canine
Method: as §1, §2

Pseudomonas aeruginosa = test system: Pseudomonas aeruginosa; design: method as in PMID 30842436; conditions: cited from earlier work
[2] = test system: Staphylococcus pseudintermedius; conditions: cited from earlier work
in vitro [3] = format: cell-based, rat (Sprague–Dawley); conditions: Sprague-Dawley, rat
Method: as §1, §2

rat erythrocytes = test: in vitro; format: cell-based, rat (Sprague–Dawley); conditions: for IC10 haemolysis: rat erythrocytes; for IC50: red cells of rat
Method: as §1, §2

Staphylococcus aureus = test system: Staphylococcus aureus; design: method as in PMID 30842436; conditions: cited from earlier work
bovine erythrocytes = test: in vitro; format: cell-based; conditions: bovine erythrocytes
Method: as §1, §2

in vitro [4] = format: cell-based, bovine; conditions: bovine
Method: as §1, §2

in vitro [5] = format: cell-based, human; conditions: human
Method: as §1, §2

human erythrocytes = test: in vitro; format: cell-based; conditions: for IC10 haemolysis: human erythrocytes; for IC50: red cells of human
Method: as §1, §2

| IC50 (canine erythrocytes) | IC50 (rat erythrocytes) | IC50 (human erythrocytes) | SMILES | hemolysis at 1 h, 150 µM (in vitro [1]) | IC10 haemolysis (canine erythrocytes) | MIC against Pseudomonas aeruginosa (Pseudomonas aeruginosa) | MIC against Staphylococcus pseudintermedius [2] | hemolysis at 1 h, 150 µM (in vitro [3]) | IC10 haemolysis (rat erythrocytes) | MIC against Staphylococcus aureus (Staphylococcus aureus) | IC10 haemolysis (bovine erythrocytes) | hemolysis at 1 h, 150 µM (in vitro [4]) | hemolysis at 1 h, 150 µM (in vitro [5]) | IC10 haemolysis (human erythrocytes) | Haemolytic activity (in words) (human erythrocytes) |
| --- | --- | --- | --- | --- | --- | --- | --- | --- | --- | --- | --- | --- | --- | --- | --- |
| 87 µM | 87.7 µM | 109 µM | CC(C)C[C@H](NC(=O)[C@H](CCCCN)NC(=O)[C@H](CCCCN)NC(=O)[C@@H](N)CCCCN)C(=O)N[C@@H](Cc1ccc2ccccc2c1)C(=O)N[C@@H](Cc1ccc(O)cc1)C(=O)N[C@@H](Cc1ccc2ccccc2c1)C(N)=O [Compound 17, Lys-Lys-Lys-Leu-(2-Nal)Ala-Tyr-(2-Nal)Ala] (HELM PEPTIDE1{K.K.K.L.[O=C([C@H](Cc1ccc2ccccc2c1)N[*:1])[*:2]].Y.[O=C([C@H](Cc1ccc2ccccc2c1)N[*:1])[*:2]].[am]}$$$$V2.0) | 100% | 59.6 µM | > 64 µg/mL | 16 µg/mL (≈ 14.9 µM) | 100% | 74.7 µM | > 64 µg/mL | 81.4 µM | 19.9% | 78.1% | 61.1 µM | – |
| > 150 µM | > 150 µM | > 150 µM | CCCC[C@H](NC(=O)[C@H](CCCCN)NC(=O)[C@H](CCCCN)NC(=O)[C@@H](N)CCCCN)C(=O)N[C@@H](Cc1cccc2ccccc12)C(=O)N[C@@H](Cc1ccccc1)C(=O)N[C@@H](Cc1cccc2ccccc12)C(N)=O [Compound 20, Lys-Lys-Lys-Nle-(1-Nal)Ala-Phe-(1-Nal)Ala] (HELM PEPTIDE1{K.K.K.[Nle].[O=C([C@H](Cc1cccc2ccccc12)N[*:1])[*:2]].F.[O=C([C@H](Cc1cccc2ccccc12)N[*:1])[*:2]].[am]}$$$$V2.0) | 36% | 45.8 µM | 16 µg/mL (≈ 15.1 µM) | 16 to 32 µg/mL | < 8% | > 150 µM | > 64 µg/mL | 94.7 µM | 20.1% | 27.5% | 91.3 µM | – |
| > 150 µM | > 150 µM | > 150 µM | CC(C)C[C@@H](NC(=O)[C@H](CCCCN)NC(=O)[C@H](CCCCN)NC(=O)[C@@H](N)CCCCN)C(=O)N[C@H](Cc1cccc2ccccc12)C(=O)N[C@H](Cc1ccc(O)cc1)C(=O)N[C@H](Cc1cccc2ccccc12)C(N)=O [Compound 21, Lys-Lys-Lys-Leu-(1-Nal)Ala-Tyr-(1-Nal)Ala] (HELM PEPTIDE1{K.K.K.[dL].[O=C([C@@H](Cc1cccc2ccccc12)N[*:1])[*:2]].[dY].[O=C([C@@H](Cc1cccc2ccccc12)N[*:1])[*:2]].[am]}$$$$V2.0) | 19.9% | 48.2 µM | 8 µg/mL (≈ 7.46 µM) | 2 to 4 µg/mL | < 8% | > 150 µM | 32 to 64 µg/mL | 109.7 µM | 16% | < 8% | > 150 µM | – |
| > 150 µM | > 150 µM | > 150 µM | CC(C)C[C@H](NC(=O)CN(CCCCN)C(=O)CN(CCCCN)C(=O)CNCCCCN)C(=O)N[C@@H](Cc1ccc2ccccc2c1)C(=O)N[C@@H](Cc1ccccc1)C(=O)N[C@@H](Cc1ccc2ccccc2c1)C(N)=O [Compound 23, N-Lys-N-Lys-N-Lys-Leu-(2-Nal)Ala-Phe-(2-Nal)Ala] (H-[Nlys][Nlys][Nlys]L[2Nal]F[2Nal]-NH2) | 35.1% | 43.3 µM | 32 µg/mL (≈ 30.3 µM) | 2 to 4 µg/mL | < 8% | > 150 µM | 32 µg/mL (≈ 30.3 µM) | 145.8 µM | 11.1% | 35.9% | 98.7 µM | not highly lytic |
